Data reported in ChEMBL document CHEMBL1681733, “Synthesis and evaluation of [(1R)-1-amino-2-(2,5-difluorophenyl)ethyl]cyclohexanes and 4-[(1R)-1-amino-2-(2,5-difluorophenyl)ethyl]piperidines as DPP-4 inhibitors” (Bioorg Med Chem Lett, 2011).

Legend:
[1] = Clearance in rat at 1 mg/kg, iv and 2 mg/kg, po; assay type: ADME, organism-based; details: in vivo
[2] = Cmax in rat at 1 mg/kg, iv and 2 mg/kg, po; assay type: ADME, organism-based; details: in vivo
Prolyl endopeptidase FAP = target: T1, Prolyl endopeptidase FAP (Homo sapiens, UniProt Q12884); test: Inhibition of FAP
T1 sequence (Q12884 whole entry): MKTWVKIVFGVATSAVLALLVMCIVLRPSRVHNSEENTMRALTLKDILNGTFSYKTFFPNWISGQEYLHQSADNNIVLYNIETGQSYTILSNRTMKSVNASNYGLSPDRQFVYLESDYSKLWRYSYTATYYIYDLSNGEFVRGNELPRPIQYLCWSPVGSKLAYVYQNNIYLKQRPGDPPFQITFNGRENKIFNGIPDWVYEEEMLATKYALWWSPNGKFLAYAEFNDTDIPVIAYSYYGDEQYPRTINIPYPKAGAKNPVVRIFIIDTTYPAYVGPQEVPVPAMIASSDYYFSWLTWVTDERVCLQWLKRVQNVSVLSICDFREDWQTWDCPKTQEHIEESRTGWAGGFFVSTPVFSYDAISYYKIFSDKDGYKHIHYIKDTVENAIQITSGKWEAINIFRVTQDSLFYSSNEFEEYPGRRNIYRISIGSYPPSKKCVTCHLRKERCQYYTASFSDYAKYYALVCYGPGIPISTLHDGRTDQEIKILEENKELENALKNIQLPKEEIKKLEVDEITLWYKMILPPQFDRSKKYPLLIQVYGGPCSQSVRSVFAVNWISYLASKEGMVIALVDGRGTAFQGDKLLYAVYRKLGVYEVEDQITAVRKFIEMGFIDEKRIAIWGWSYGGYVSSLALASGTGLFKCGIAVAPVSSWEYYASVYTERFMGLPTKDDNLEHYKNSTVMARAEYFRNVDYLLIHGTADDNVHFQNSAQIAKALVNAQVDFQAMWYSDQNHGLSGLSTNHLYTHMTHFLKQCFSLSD

[3] = Oral bioavailability in rat at 2 mg/kg; assay type: ADME, organism-based; details: in vivo
[4] = Half life in rat at 1 mg/kg, iv and 2 mg/kg, po; assay type: ADME, organism-based; details: in vivo
Dipeptidyl peptidase 8 = Dipeptidyl peptidase 8 (Homo sapiens, UniProt Q6V1X1); test: Inhibition of DPP8
Chain of Dipeptidyl peptidase 8 (Q6V1X1 whole entry): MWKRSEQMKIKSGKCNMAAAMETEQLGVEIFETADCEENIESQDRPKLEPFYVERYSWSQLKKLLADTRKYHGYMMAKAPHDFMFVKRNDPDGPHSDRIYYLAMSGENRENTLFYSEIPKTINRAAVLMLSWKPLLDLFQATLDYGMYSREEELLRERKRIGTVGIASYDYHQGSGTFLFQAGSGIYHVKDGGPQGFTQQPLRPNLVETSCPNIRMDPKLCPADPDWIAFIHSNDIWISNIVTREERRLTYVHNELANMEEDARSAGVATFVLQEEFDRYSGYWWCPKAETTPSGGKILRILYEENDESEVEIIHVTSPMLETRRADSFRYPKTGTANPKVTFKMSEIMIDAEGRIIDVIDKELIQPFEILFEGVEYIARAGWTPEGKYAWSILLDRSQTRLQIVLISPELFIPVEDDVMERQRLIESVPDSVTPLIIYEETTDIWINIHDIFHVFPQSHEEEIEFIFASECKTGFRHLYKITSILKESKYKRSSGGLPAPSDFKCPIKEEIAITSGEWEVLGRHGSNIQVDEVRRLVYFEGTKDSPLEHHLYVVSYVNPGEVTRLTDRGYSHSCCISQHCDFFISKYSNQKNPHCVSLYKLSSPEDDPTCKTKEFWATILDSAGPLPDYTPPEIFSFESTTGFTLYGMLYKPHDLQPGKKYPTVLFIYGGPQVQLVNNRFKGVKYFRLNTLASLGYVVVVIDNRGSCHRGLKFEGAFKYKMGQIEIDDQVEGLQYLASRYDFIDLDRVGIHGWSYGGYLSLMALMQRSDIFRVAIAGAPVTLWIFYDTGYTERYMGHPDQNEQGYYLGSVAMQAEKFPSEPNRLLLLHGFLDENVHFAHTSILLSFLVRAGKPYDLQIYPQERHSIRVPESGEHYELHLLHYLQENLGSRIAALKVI

Dipeptidyl peptidase 2 = Dipeptidyl peptidase 2 (Homo sapiens, UniProt Q9UHL4); test: Inhibition of QPP
Dipeptidyl peptidase 4 = Dipeptidyl peptidase 4 (Homo sapiens, UniProt P27487)
Chain of Dipeptidyl peptidase 4 (P27487 whole entry): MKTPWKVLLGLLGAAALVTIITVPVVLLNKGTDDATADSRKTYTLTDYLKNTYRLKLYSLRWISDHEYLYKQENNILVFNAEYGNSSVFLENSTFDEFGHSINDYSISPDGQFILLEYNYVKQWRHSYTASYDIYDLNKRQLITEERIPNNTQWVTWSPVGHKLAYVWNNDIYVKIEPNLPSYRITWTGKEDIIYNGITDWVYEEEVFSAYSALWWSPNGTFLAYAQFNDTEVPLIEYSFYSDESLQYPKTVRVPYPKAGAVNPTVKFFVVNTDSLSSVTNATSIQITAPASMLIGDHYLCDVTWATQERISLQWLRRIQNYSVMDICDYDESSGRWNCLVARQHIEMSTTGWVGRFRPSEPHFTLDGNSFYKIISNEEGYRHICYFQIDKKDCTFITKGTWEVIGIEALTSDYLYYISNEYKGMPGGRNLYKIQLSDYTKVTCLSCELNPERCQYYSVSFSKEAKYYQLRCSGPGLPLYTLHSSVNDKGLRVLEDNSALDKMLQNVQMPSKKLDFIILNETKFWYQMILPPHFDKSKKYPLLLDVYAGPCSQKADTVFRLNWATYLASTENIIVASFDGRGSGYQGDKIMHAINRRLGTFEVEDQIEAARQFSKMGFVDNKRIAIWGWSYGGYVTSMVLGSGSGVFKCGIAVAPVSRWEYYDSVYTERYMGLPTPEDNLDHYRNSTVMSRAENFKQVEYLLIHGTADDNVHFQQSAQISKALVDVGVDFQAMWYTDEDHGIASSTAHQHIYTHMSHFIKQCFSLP

Dipeptidyl peptidase 9 = Dipeptidyl peptidase 9 (Homo sapiens, UniProt Q86TI2); test: Inhibition of DPP9
Chain of Dipeptidyl peptidase 9 (Q86TI2 whole entry): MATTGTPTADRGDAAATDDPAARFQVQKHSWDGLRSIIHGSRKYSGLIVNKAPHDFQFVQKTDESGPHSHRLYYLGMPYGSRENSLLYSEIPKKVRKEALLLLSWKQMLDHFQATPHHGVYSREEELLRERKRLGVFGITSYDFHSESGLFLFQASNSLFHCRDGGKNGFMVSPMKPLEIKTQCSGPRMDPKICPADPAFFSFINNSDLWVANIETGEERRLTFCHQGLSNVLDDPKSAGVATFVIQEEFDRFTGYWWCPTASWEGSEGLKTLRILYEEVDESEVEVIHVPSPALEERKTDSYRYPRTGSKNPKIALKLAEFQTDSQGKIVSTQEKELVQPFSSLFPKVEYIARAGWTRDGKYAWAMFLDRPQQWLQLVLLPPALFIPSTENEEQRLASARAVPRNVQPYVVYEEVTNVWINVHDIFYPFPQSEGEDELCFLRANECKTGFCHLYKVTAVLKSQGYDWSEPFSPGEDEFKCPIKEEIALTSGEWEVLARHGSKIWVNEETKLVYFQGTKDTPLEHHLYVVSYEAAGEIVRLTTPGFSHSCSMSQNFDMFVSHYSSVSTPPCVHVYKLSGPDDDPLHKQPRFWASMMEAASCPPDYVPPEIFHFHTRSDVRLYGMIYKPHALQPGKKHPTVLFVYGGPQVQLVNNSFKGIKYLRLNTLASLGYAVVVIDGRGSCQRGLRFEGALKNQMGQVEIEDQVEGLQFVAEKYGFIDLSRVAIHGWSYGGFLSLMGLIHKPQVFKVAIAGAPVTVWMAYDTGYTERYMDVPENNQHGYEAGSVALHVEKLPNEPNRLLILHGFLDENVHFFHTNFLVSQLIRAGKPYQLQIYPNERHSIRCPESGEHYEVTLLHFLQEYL

Row | clearance [1] | Cmax [2] | IC50 (Prolyl endopeptidase FAP) | bioavailability [3] | half-life [4] | IC50 (Dipeptidyl peptidase 8) | IC50 (Dipeptidyl peptidase 2) | IC50 (Dipeptidyl peptidase 4) | IC50 (Dipeptidyl peptidase 9) | SMILES
1 | 204 mL/min/kg | 19 nM | > 35 µM | 13% |  |  |  |  |  | CN([C@H]1CC[C@H]([C@H](N)Cc2cc(F)ccc2F)CC1)S(=O)(=O)c1cccc(C(N)=O)c1
2 | 180 mL/min/kg | 190 nM | > 35 µM | 25% | 3.5 h | > 100 µM | 8.5 µM | 0.094 µM |  | CN([C@H]1CC[C@H]([C@H](N)Cc2cc(F)ccc2F)CC1)S(=O)(=O)c1ccc(-c2csnn2)cc1
3 | 116 mL/min/kg | 32 nM | > 35 µM | 2.2% | 3 h | > 100 µM | 63 µM | 0.055 µM | > 100 µM | Cc1noc(C)c1S(=O)(=O)N(C)[C@H]1CC[C@H]([C@H](N)Cc2cc(F)ccc2F)CC1
4 | 177 mL/min/kg | 120 nM | > 35 µM | 9.7% | 1 h |  | 83 µM | 0.12 µM |  | CC(=O)N(C)[C@H]1CC[C@H]([C@H](N)Cc2cc(F)ccc2F)CC1
5 |  |  | > 35 µM |  |  | > 100 µM | > 100 µM | 0.14 µM | > 100 µM | CN(C(=O)CCC(=O)O)[C@H]1CC[C@H]([C@H](N)Cc2cc(F)ccc2F)CC1
6 |  |  | > 35 µM |  |  | > 100 µM | > 100 µM | 0.26 µM | > 100 µM | CCN(C(C)=O)[C@H]1CC[C@H]([C@H](N)Cc2cc(F)ccc2F)CC1
7 |  |  | > 35 µM |  |  | > 100 µM | 51 µM | 0.1 µM | > 100 µM | CC(=O)N(CCCC(F)(F)F)[C@H]1CC[C@H]([C@H](N)Cc2cc(F)ccc2F)CC1
8 | 201 mL/min/kg | 24 nM | > 35 µM | 24% | 2.1 h |  |  |  |  | NC(=O)[C@@H]1CCCN([C@H]2CC[C@H]([C@H](N)Cc3cc(F)ccc3F)CC2)C1
9 |  |  | > 35 µM |  |  | > 100 µM | 66 µM | 0.45 µM | > 100 µM | CC(=O)N1CCC([C@H](N)Cc2cc(F)ccc2F)CC1
10 | 154 mL/min/kg | 69 nM | > 35 µM | 22% | 2.8 h |  |  |  |  | Cc1ccc(N2CCC([C@H](N)Cc3cc(F)ccc3F)CC2)c(C)n1
11 | 171 mL/min/kg | 19 nM | > 35 µM | 4.5% | 0.92 h |  |  |  |  | N[C@H](Cc1cc(F)ccc1F)C1CCN(c2cncnc2)CC1
